In patent US20050101655A1, “Migraine treatments including isovaleramide compounds and serotonin agonists” (priority 2003, published 2005):

Key:
chronic spinalized rats [1] = test: polysynaptic flexor-reflex responses (EMG) in chronic spinalized rats; assay type: in vivo; details: for total reduction of the flexor reflex (total area under the curve): two-hour measurement period, several doses, vs vehicle
Method: (§1) Assessment of hyperreflexia, pain, and muscle tone in chronic spinally transected rats was conducted using male albino Holtzman-derived rats (available from Harlan Sprague-Dawley Laboratories) weighing 270-530 grams as subjects. The rats were housed independently and had continuous access to food and water throughout the experiments. All procedures were reviewed and approved by the Institutional Animal Care and Use Committee. Animals were anesthetized using a mixture of isoflurane and oxygen at a flow rate of 4 liters/minute.
(§2) The rats were placed in a stereotaxic frame and anesthesia was maintained. An incision was made so that the paraspinal muscles could be retracted and a laminectomy performed between T6-T9. A one- to two-millimeter portion of the spinal cord was removed by evacuation and replaced with gel foam to reduce bleeding, after which the incision was closed in layers.
Following the transection, rats were placed in a room in which the ambient temperature was raised to about 80° F. with a space heater to maintain body temperature. On the following morning post-surgery, the hindquarters of the spinalized rats were bathed and their urine expressed manually by applying pressure to their bladders. Experiments were conducted between 21 and 28 days after surgery. For the first two weeks post-surgery, 0.25 ml of the antibiotic Sulfatrim Pediatric Suspension was orally administered to the rats to prevent bladder infection. […]
With reference to FIG. 3, polysynaptic flexor-reflex responses, elicited by stimuli that activate high-threshold afferents, were recorded as EMG activity from the ipsilateral hamstring muscle. […] The flexor reflex was recorded, in both the pre-drug and the post-drug periods, every 30 minutes once a stable baseline response was achieved. […] The responses were determined in spinalized rats by observing the flexor-reflex response before treatment and at each of 30, 60, 90, and 120 minutes following administration of isovaleramide (300 mg/kg p.o.), baclofen (10 mg/kg s.c.) and vehicle (water, 12 ml/kg p.o.), respectively. […]

mice = test: hot plate test in mice (foot licking latency); assay type: in vivo; details: 600 orally, 60 minutes after administration, hot plate 54° C., compared to vehicle
chronic spinalized rats [2] = test: observational scoring of hyperreflexia elicited by an innocuous stimulus in chronic spinalized rats; assay type: in vivo; details: 300 mg/kg i.p.
Method: as §1, §2
Following the transection, rats were placed in a room in which the ambient temperature was raised to about 80° F. with a space heater to maintain body temperature. On the following morning post-surgery, the hindquarters of the spinalized rats were bathed and their urine expressed manually by applying pressure to their bladders. Experiments were conducted between 21 and 28 days after surgery. For the first two weeks post-surgery, 0.25 ml of the antibiotic Sulfatrim Pediatric Suspension was orally administered to the rats to prevent bladder infection. […] Within approximately two weeks, all animals regained bladder control and were no longer given antibiotic treatment. […]
Initial assessment of hyperreflexia was performed by the subjective scoring method of rating the resulting hyperreflexia response elicited with an innocuous stimulus, such as a metal probe. […] The response was evaluated for each of four trials using a scale ranging from zero (no response in all four trials) to four (a maximum, tonic-clonic reaction elicited in all four trials). […] The raw or normalized scores were analyzed with a one-way repeated measures ANOVA. […]

[3] = oral absorption / bioavailability of isovaleramide; details: in vivo
migraine symptoms = details: reported; cited from earlier work

| SMILES | total reduction of the flexor reflex (total area under the curve) (chronic spinalized rats [1]) | foot licking latency (mice) | overt behavioral toxicity or motor impairment (chronic spinalized rats [2]; chronic spinalized rats) | reduction of hyperreflexia scores (chronic spinalized rats [2]; 15, 30, 60 and 120 minutes post-administration) | hyperreflexia scores by the next day (chronic spinalized rats [2]; 1440 minutes (24 hours)) | magnitude of the flexor-reflex responses (chronic spinalized rats [1]; 300 mg/kg p.o., 30, 60, 90 and 120 minutes, compared with baclofen 10 mg/kg s.c.) | bioavailability [3] | patients with relief of the migraine symptoms (migraine symptoms) |
| --- | --- | --- | --- | --- | --- | --- | --- | --- |
| NCC(CC(=O)O)c1ccc(Cl)cc1 (stereo not drawn) [baclofen, reference compound] | dose-dependent reduction of the flexor reflex | – | – | – | – | – | – | – |
| CC(C)CC(N)=O [isovaleramide, Isovaleramide] | dose-dependent reduction of the flexor reflex | increased foot licking latency | No overt behavioral toxicity or motor impairment | 45-65% | essentially returned to baseline values | reduce the magnitude of the flexor-reflex responses | ~100% | – |
| CNS(=O)(=O)Cc1ccc2[nH]cc(CCN(C)C)c2c1 [sumatriptan] | – | – | – | – | – | – | – | approximately 40% |
